Measured values published in patent publication US9944666B2, “Compounds that are S1P modulating agents and/or ATX modulating agents” (BIOGEN MA INC., priority 2012, dated 2018).

The compounds below were run against T1, Human ATX protein (Homo sapiens, UniProt Q13822) (assay: ATX biochemical FRET assay with FS-3 substrate). Conditions: FS-3 2 μM, ATX 1.0 μg/mL, room temperature 2 hours, fluorescence 485/538 nm.
T1 construct: made in house
From the text: ATX (Autotaxin) is a 125 KDa glycoprotein with lysophospholipase D (LPLD) activity that generates the bioactive lipid lysophosphatidic acid (LPA) from lysophosphatidylcholine (LPC). The ATX biochemical assay utilizes a FRET (fluorescence resonance energy transfer) technology platform. The fluorescence signal of FRET substrate FS-3 is quenched due to intra-molecular FRET of a fluorophore to a non-fluorescing quencher (Ferguson, C. G., et al., Org Lett. 2006 May 11; 8(10): 2023-2026, which is incorporated by reference in its entirety). ATX catalyzes the hydrolysis of the substrate which separates the dabsyl quencher from the fluorescein reporter, which becomes fluorescent. The reaction is monitored by a SpectraMax M5 (Molecular Devices, Sunnyvale, Calif.) with at excitation wavelength 485 nm and emission wavelength […].
Fatty acid free-BSA (Sigma A8806): 10 mg/ml, in H2O, stored at 4° C.
2×ATX assay buffer: 100 mM Tris, 280 mM NaCl, 10 mM KCl, 2 mM CaCl2, 2 mM MgCl2, pH 7.4.
Human ATX protein: expressed and purified in house. Stored at −80° C.
Substrate FS-3 (Echelon, L-2000): 100 μg in 77.74 μL H2O (1 mM stock), stored at −20° C.
384-well flat bottom plates—Corning #3575.
Compound dilution—All compounds were provided at 10 mM in 100% DMSO. In the first well, 2 μL of 10 mM compound was added to 78 μL of DMSO (1:40 dilution). In subsequent wells 3-fold dilution (total 10 dilutions) were performed.
1×ATX assay buffer was made up with a final concentration of 1 mg/mL fatty acid free-BSA using 2×ATX assay buffer, 10 mg/ml fatty acid free-BSA and ddH2O.
ATX protein was diluted with 1×ATX assay buffer to a concentration of 1.32 μg/mL (1.32×). 38 μL was added per well to the assay plate. The final concentration of ATX in the reaction as 1.0 μg/mL.
2 μL per well of compounds was transferred to provide the desired concentration. The plate was centrifuged, then incubated at room temperature for 30 minutes on the shaker.
FS-3 was diluted with 1×ATX assay buffer to a concentration of FS-3 of 10 μM (5×). Then, 10 μL was added per well to the assay plate. The final concentration of FS-3 in the reaction was 2 μM. The plate was centrifuged. The plate was kept shaking at room temperature for 2 hours. Because FS-3 substrate is light sensitive, plates were kept covered and protected from light.
Fluorescence was measured using SpectraMax M5 (excitation at 485 nm/emission at 538 nm, top read).
Work on `CC(c1ccc2c(C(F)(F)F)c(O[C@H]3CC[C@@H](C)CC3)ccc2c1)N1C2CCC1CC(C(=O)O)C2` (single isomer, unassigned; enantiomer 1) [Example 130, 8-(1-(6-((cis-4-Methylcyclohexyl)oxy)-5-(trifluoromethyl)naphthalen-2-yl)ethyl)-8-azabicyclo[3.2.1]octane-3-carboxylic acid, enantiomer 1] yielded an IC50 of at most 250 nM. In the case of `CC(c1ccc2c(C(F)F)c(O[C@H]3CC[C@@H](C)CC3)ccc2c1)N1C2CCC1CC(C(=O)O)C2` (single isomer, unassigned; enantiomer 1) [Example 136, 8-(1-(5-(difluoromethyl)-6-((cis-4-methylcyclohexyl)oxy)naphthalen-2-yl)ethyl)-8-azabicyclo[3.2.1]octane-3-carboxylic acid, enantiomer 1], the IC50 is reported as at most 100 nM. `CC(c1ccc2c(C(F)F)c(O[C@H]3CC[C@@H](C)CC3)ccc2c1)N1C2CCCC1CC(C(=O)O)C2` (single isomer, unassigned; enantiomer 1) [Example 138, 9-(1-(5-(difluoromethyl)-6-((cis-4-methylcyclohexyl)oxy)naphthalen-2-yl)ethyl)-9-azabicyclo[3.3.1]nonane-3-carboxylic acid, enantiomer 1] showed an IC50 of at most 100 nM. Work on `CCC(c1ccc2c(C(F)F)c(O[C@H]3CC[C@@H](C)CC3)ccc2c1)N1C2CCC1CC(C(=O)O)C2` (single isomer, unassigned; enantiomer 1) [Example 140, 8-(1-(5-(difluoromethyl)-6-((cis-4-methylcyclohexyl)oxy)naphthalen-2-yl)propyl)-8-azabicyclo[3.2.1]octane-3-carboxylic acid, enantiomer 1] yielded an IC50 of at most 100 nM. `O=C(O)C1CC2CCC(C1)C2NCc1ccc2c(C(F)(F)F)c(O[C@H]3CC[C@@H](C(F)(F)F)CC3)ccc2c1` (single isomer, unassigned; enantiomer 1) [Example 162, N-(5-trifluoromethyl-6-(cis-4-trifluoromethyl-cyclohexyloxy)-naphthalen-2-ylmethyl)-8-aminobicyclo[3.2.1]octane-3-carboxylic acid, enantiomer 1] showed an IC50 of at most 250 nM. `CC(c1ccc2c(C(F)(F)F)c(O[C@H]3CC[C@@H](C(F)(F)F)CC3)ccc2c1)N1C2CCC1CC(C(=O)O)C2` (single isomer, unassigned; enantiomer 1) [Example 173, 8-(1-(5-(trifluoromethyl)-6-((cis-4-(trifluoromethyl)cyclohexyl)oxy)naphthalen-2-yl)ethyl)-8-azabicyclo[3.2.1]octane-3-carboxylic acid, enantiomer 1] gave an IC50 of at most 100 nM. For `CC(c1ccc2c(C(F)(F)F)c(O[C@H]3CC[C@@H](C)CC3)ccc2c1)N1C2CCC1CC(C(=O)O)C2` (single isomer, unassigned; enantiomer 2) [Example 131, 8-(1-(6-((cis-4-Methylcyclohexyl)oxy)-5-(trifluoromethyl)naphthalen-2-yl)ethyl)-8-azabicyclo[3.2.1]octane-3-carboxylic acid, enantiomer 2], the IC50 was at most 100 nM. For `CC[C@H]1CC[C@@H](Oc2ccc3cc(CN4C5CCCC4CC(C(=O)O)C5)ccc3c2)CC1` (stereo partly drawn) [Example 83, 9-((6-((cis-4-ethylcyclohexyl)oxy)naphthalen-2-yl)methyl)-9-azabicyclo[3.3.]nonane-3-carboxylic acid], the IC50 was at most 500 nM. Work on `O=C(O)C1CC2CCCC(C1)N2Cc1ccc2c(C(F)(F)F)c(O[C@H]3CC[C@@H](C(F)(F)F)CC3)ccc2c1` (stereo partly drawn) [Example 84, 9-((5-(trifluoromethyl)-6-((cis-4-(trifluoromethyl)cyclohexyl)oxy)naphthalen-2-yl)methyl)-9-azabicyclo[3.3.1]nonane-3-carboxylic acid] yielded an IC50 of at most 100 nM. `O=C(O)C1CC(NCc2ccc3c(C(F)(F)F)c(O[C@H]4CC[C@@H](C(F)(F)F)CC4)ccc3c2)C12CCCCC2` (stereo partly drawn) [Example 85, 3-(((5-(trifluoromethyl)-6-((cis-4-(trifluoromethyl)cyclohexyl)oxy)naphthalene-2-yl)methyl)amino)spiro[3.5]nonane-1-carboxylic acid] showed an IC50 of at most 500 nM. `CC(c1ccc2c(C(F)(F)F)c(O[C@H]3CC[C@@H](C(F)(F)F)CC3)ccc2c1)N1C2CCCC1CC(C(=O)O)C2` (some centres unmarked) [Example 88] showed an IC50 of at most 100 nM. Work on `CC(c1ccc2c(C(F)(F)F)c(O[C@H]3CC[C@@H](C)CC3)ccc2c1)N1C2CCCC1CC(C(=O)O)C2` (stereo partly drawn) [Example 93, 9-(1-(6-((cis-4-Methylcyclohexyl)oxy)-5-(trifluoromethyl)naphthalen-2-yl)ethyl)-9-azabicyclo[3.3.1]nonane-3-carboxylic acid] yielded an IC50 of at most 100 nM. Compound `C[C@H]1CC[C@@H](Oc2ccc3cc(CN4C5CCC4CC(C(=O)O)C5)ccc3c2C(F)(F)F)CC1` (stereo partly drawn) [Example 96, 8-((6-((cis-4-Methylcyclohexyl)oxy)-5-(trifluoromethyl)naphthalen-2-yl)methyl)-8-azabicyclo[3.2.1]octane-3-carboxylic acid] has an IC50 of at most 500 nM. Compound `C[C@H]1CC[C@@H](Oc2ccc3cc(CN4C5CCCC4CC(C(=O)O)C5)ccc3c2C(F)(F)F)CC1` (stereo partly drawn) [Example 97, 9-((6-((cis-4-Methylcyclohexyl)oxy)-5-(trifluoromethyl)naphthalen-2-yl)methyl)-9-azabicyclo[3.3.1]nonane-3-carboxylic acid] has an IC50 of at most 100 nM. Compound `CCC(c1ccc2c(C(F)F)c(O[C@H]3CC[C@@H](C)CC3)ccc2c1)N1C2CCC1CC(C(=O)O)C2` (stereo partly drawn) [Example 99, 8-(1-(5-(difluoromethyl)-6-((cis-4-methylcyclohexyl)oxy)naphthalen-2-yl)propyl)-8-azabicyclo[3.2.1]octane-3-carboxylic acid] has an IC50 of at most 100 nM. Compound `O=C(O)C1CC2CCCC(C1)N2Cc1ccc2c(C(F)F)c(O[C@H]3CC[C@@H](C(F)(F)F)CC3)ccc2c1` (stereo partly drawn) [Example 100, 9-((5-(difluoromethyl)-6-((cis-4-(trifluoromethyl)cyclohexyl)oxy)naphthalene-2-yl)methyl)-9-azabicyclo[3.3.1]nonane-3-carboxylic acid] has an IC50 of at most 100 nM. Compound `O=C(O)C1CC2CCCC(C1)N2Cc1ccc2c(C(F)(F)F)c(O[C@H]3CC[C@@H](C(F)(F)F)CC3)ccc2n1` (stereo partly drawn) [Example 101, 9-((5-(trifluoromethyl)-6-((cis-4-(trifluoromethyl)cyclohexyl)oxy)quinolin-2-yl)methyl)-9-azabicyclo[3.3.1]nonane-3-carboxylic acid] has an IC50 of at most 100 nM. `CC(c1ccc2c(C(F)(F)F)c(O[C@H]3CC[C@@H](C(F)(F)F)CC3)ccc2n1)N1C2CCC1CC(C(=O)O)C2` (stereo partly drawn) [Example 102, 8-(1-(5-(trifluoromethyl)-6-((cis-4-(trifluoromethyl)cyclohexyl)oxy)quinolin-2-yl)ethyl)-8-azabicyclo[3.2.1]octane-3-carboxylic acid] was tested, and the IC50 was at most 100 nM. `C[C@H]1CC[C@@H](Oc2ccc3cc(C(=O)N4C5CCC4CC(C(=O)O)C5)ccc3c2C(F)(F)F)CC1` (stereo partly drawn) [Example 104, 8-(6-((cis-4-Methylcyclohexyl)oxy)-5-(trifluoromethyl)-2-naphthoyl)-8-azabicyclo[3.2.1]octane-3-carboxylic acid] showed an IC50 of at most 100 nM. `O=C(O)C1CC2CCCC(C1)N2C(=O)c1ccc2c(C(F)(F)F)c(O[C@H]3CC[C@@H](C(F)(F)F)CC3)ccc2c1` (stereo partly drawn) [Example 105, 9-(5-(trifluoromethyl)-6-((cis-4-(trifluoromethyl)cyclohexyl)oxy)-2-naphthoyl)-9-azabicyclo[3.3.1]nonane-3-carboxylic acid] was tested, and the IC50 was at most 100 nM. `O=C(O)C1CC2CCCC(C1)N2C(=O)Cc1ccc2c(C(F)(F)F)c(O[C@H]3CC[C@@H](C(F)(F)F)CC3)ccc2c1` (stereo partly drawn) [Example 106, 9-(2-(5-(trifluoromethyl)-6-((cis-4-(trifluoromethyl)cyclohexyl)oxy)naphthalene-2-yl)acetyl)-9-azabicyclo[3.3.1]nonane-3-carboxylic acid] was tested, and the IC50 was at most 500 nM. `C[C@H]1CC[C@@H](Oc2ccc3cc(C(C(=O)O)N4C5CCCC4CCC5)ccc3c2C(F)(F)F)CC1` (stereo partly drawn) [Example 109, 2-(9-Azabicyclo[3.3.1]nonan-9-yl)-2-(6-((cis-4-methylcyclohexyl)oxy)-5-(trifluoromethyl)naphthalen-2-yl)acetic acid] was tested, and the IC50 was at most 250 nM. Work on `CC[C@H]1CC[C@@H](Oc2ccc3cc(CN4C5CCCC4CC(C(=O)O)C5)ccc3c2Cl)CC1` (stereo partly drawn) [Example 110, 9-((5-Chloro-6-((cis-4-ethylcyclohexyl)oxy)naphthalen-2-yl)methyl)-9-azabicyclo[3.3.1]nonane-3-carboxylic acid] yielded an IC50 of at most 100 nM.
